Values belong to the compound of their own block, whether it stands above or below them. Calls of active or inactive are those of the source. No cut-off for these calls is given here.
How the values were obtained:
[1] = Antagonist activity at human alpha6-alpha3/beta2/beta3 V273S mutant nAChR expressed in HEK293 cells assessed as nicotine-induced intracellular calcium release incubated for 15 mins by FLIPR analysis; assay type: cell-based; settings: HEK293, 0.25 h
[2] = Metabolic stability in human liver microsome assessed as clearance at 10 uM incubated upto 2 hrs by LC-MS/MS analysis; assay type: ADME; settings: liver microsomes, read-out: CLH
[3] = Metabolic stability in rat liver microsome assessed as clearance at 10 uM incubated upto 2 hrs by LC-MS/MS analysis; assay type: ADME; settings: liver microsomes, read-out: CLH
[4] = tested on: Rattus norvegicus; assay: Protection against tacrine-induced Sprague-Dawley rat tremulous jaw model assessed as decrease in tremor jaw movement at 25 mg/kg, po pretreated with compound for 90 mins followed by tacrine addition and measured after 5 mins; assay type: functional; set-up: scale not given: the % may be the effect or the level left; settings: time 95 min, 1.583 h
[5] = target: T1, D(4) dopamine receptor (Homo sapiens) (UniProt P21917); assay: Antagonist activity at human D4 receptor relative to control; assay type: functional; set-up: scale not given: the % may be the effect or the level left; settings: filed as antagonist
T1 sequence (whole entry): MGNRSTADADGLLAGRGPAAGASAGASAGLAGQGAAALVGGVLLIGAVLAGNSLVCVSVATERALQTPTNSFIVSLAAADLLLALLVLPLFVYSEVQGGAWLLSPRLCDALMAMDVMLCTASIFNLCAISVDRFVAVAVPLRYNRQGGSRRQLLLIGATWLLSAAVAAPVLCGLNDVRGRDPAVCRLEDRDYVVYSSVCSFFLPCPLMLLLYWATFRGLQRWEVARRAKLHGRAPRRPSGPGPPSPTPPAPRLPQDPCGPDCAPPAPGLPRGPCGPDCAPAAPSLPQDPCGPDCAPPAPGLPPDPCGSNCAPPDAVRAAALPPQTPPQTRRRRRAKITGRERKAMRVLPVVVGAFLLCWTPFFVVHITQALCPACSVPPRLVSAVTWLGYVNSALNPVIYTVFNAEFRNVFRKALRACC

[6] = target: Neuronal acetylcholine receptor; alpha3/beta4 (Homo sapiens, UniProt P30926+P32297); assay: Antagonist activity at human alpha3/beta4 nAChR expressed in HEK293 cells assessed as nicotine-induced intracellular calcium release incubated for 15 mins by FLIPR analysis; assay type: cell-based
[7] = target: Neuronal acetylcholine receptor; alpha4/beta2 (Homo sapiens, UniProt P17787+P43681); assay: Antagonist activity at human alpha4/beta2 nAChR expressed in HEK293 cells assessed as nicotine-induced intracellular calcium release incubated for 15 mins by FLIPR analysis; assay type: cell-based
[8] = Volume of distribution at steady state in Sprague-Dawley rat at 0.5 mg/kg, iv by LC-MS/MS analysis; assay type: ADME, organism-based; settings: in vivo, read-out: Vdss
[9] = Drug exposure in Sprague-Dawley rat brain at 3 mg/kg, po measured for 2 hrs by LC-MS/MS analysis; assay type: ADME, organism-based; settings: read-out: Drug uptake
[10] = tested on: Rattus norvegicus; assay: Protection against tacrine-induced po dosed Sprague-Dawley rat tremulous jaw model assessed as decrease in tremor duration pretreated with compound for 90 mins followed by tacrine addition and measured after 5 mins; assay type: functional, organism-based; settings: dose 3-25 mg/kg, time 95.0 min
[11] = tested on: Rattus norvegicus; assay: Protection against tacrine-induced Sprague-Dawley rat tremulous jaw model assessed as decrease in tremor jaw movement at 3 to 25 mg/kg, po pretreated with compound for 90 mins followed by tacrine addition and measured after 5 mins; assay type: functional, organism-based; settings: dose 3-25 mg/kg, time 95.0 min
[12] = tested on: Brain; assay: Drug concentration in po dosed Sprague-Dawley rat brain measured after 2 hrs by LC-MS/MS analysis; assay type: functional, organism-based; settings: dose 3-25 mg/kg
[13] = Metabolic stability in human liver microsome assessed as intrinsic clearance preincubated for 60 mins followed by NADPH addition and measured after 60 mins by LC-MS/MS analysis; assay type: ADME; settings: liver microsomes, time 120 min, read-out: CLH
[14] = Metabolic stability in rat liver microsome assessed as intrinsic clearance preincubated for 60 mins followed by NADPH addition and measured after 60 mins by LC-MS/MS analysis; assay type: ADME; settings: liver microsomes, time 120 min, read-out: CLH
[15] = Metabolic stability in mouse liver microsome assessed as intrinsic clearance preincubated for 60 mins followed by NADPH addition and measured after 60 mins by LC-MS/MS analysis; assay type: ADME; settings: liver microsomes, time 120 min, read-out: CLH
[16] = Metabolic stability in dog liver microsome assessed as intrinsic clearance preincubated for 60 mins followed by NADPH addition and measured after 60 mins by LC-MS/MS analysis; assay type: ADME, Canis lupus familiaris; settings: liver microsomes, time 120 min, read-out: CLH
[17] = Metabolic stability in rat hepatocytes assessed as intrinsic clearance measured per 10^6 cells; assay type: ADME, cell-based, Hepatocyte
[18] = Metabolic stability in mouse hepatocytes assessed as intrinsic clearance measured per 10^6 cells; assay type: ADME, cell-based, Hepatocyte
[19] = Metabolic stability in dog hepatocytes assessed as intrinsic clearance measured per 10^6 cells; assay type: ADME, cell-based, Canis lupus familiaris, Hepatocyte
[20] = Metabolic stability in human hepatocytes assessed as intrinsic clearance measured per 10^6 cells; assay type: ADME, cell-based, Hepatocyte
[21] = Clearance in Sprague-Dawley rat at 0.5 mg/kg, iv by LC-MS/MS analysis; assay type: ADME, organism-based; settings: in vivo
[22] = AUC (0 to infinity) in Sprague-Dawley rat at 0.5 mg/kg, iv by LC-MS/MS analysis; assay type: ADME, organism-based; set-up: dose 0.5 mg/kg, route iv; settings: in vivo
[23] = Cmax in Sprague-Dawley rat at 10 mg/kg, po by LC-MS/MS analysis; assay type: ADME, organism-based; set-up: dose 10 mg/kg, route po; settings: in vivo
[24] = AUC (0 to infinity) in Sprague-Dawley rat at 10 mg/kg, po by LC-MS/MS analysis; assay type: ADME, organism-based; set-up: dose 10 mg/kg, route po; settings: in vivo
[25] = Oral bioavailability in Sprague-Dawley rat at 10 mg/kg by LC-MS/MS analysis; assay type: ADME, organism-based; settings: in vivo
[26] = Half life in Sprague-Dawley rat at 10 mg/kg, po by LC-MS/MS analysis; assay type: ADME, organism-based; settings: in vivo
[27] = Ratio of drug concentration in Sprague-Dawley rat brain to plasma assessed as unbound fraction at 10 mg/kg, po measured after 6 hrs by LC-MS/MS analysis; assay type: ADME, organism-based; settings: read-out: K(p,uu,brain)
[28] = Volume of distribution at steady state in Sprague-Dawley rat at 1 mg/kg, iv by LC-MS/MS analysis; assay type: ADME, organism-based; settings: in vivo, read-out: Vdss
[29] = AUC (0 to infinity) in Sprague-Dawley rat at 1 mg/kg, iv by LC-MS/MS analysis; assay type: ADME, organism-based; set-up: dose 1 mg/kg, route iv; settings: in vivo
[30] = Oral bioavailability in Sprague-Dawley rat at 3 mg/kg by LC-MS/MS analysis; assay type: ADME, organism-based; settings: in vivo
[31] = Half life in Sprague-Dawley rat at 3 mg/kg, po by LC-MS/MS analysis; assay type: ADME, organism-based; settings: in vivo
[32] = Plasma protein binding in human assessed as unbound fraction by rapid equilibrium dialysis; assay type: ADME, cell-free
[33] = Plasma protein binding in rat assessed as unbound fraction by rapid equilibrium dialysis; assay type: ADME, cell-free
[34] = Plasma protein binding in mouse assessed as unbound fraction by rapid equilibrium dialysis; assay type: ADME, cell-free
[35] = Protein binding in rat brain assessed as unbound fraction by rapid equilibrium dialysis; assay type: ADME, tissue-based
[36] = Protein binding in mouse brain assessed as unbound fraction by rapid equilibrium dialysis; assay type: ADME, tissue-based
[37] = organism: Rattus norvegicus; assay: Antagonist activity at rat I2 receptor relative to control; set-up: scale not given: the % may be the effect or the level left; settings: filed as antagonist
[38] = target: T2, Sodium-dependent noradrenaline transporter (Homo sapiens, UniProt P23975); assay: Binding affinity to human NET relative to control
[39] = target: Sigma non-opioid intracellular receptor 1 (Cavia porcellus) (UniProt Q60492); assay: Agonist activity at guinea pig sigma 1 relative to control; settings: filed as agonist
[40] = target: Neuronal acetylcholine receptor subunit alpha-7 (Homo sapiens) (UniProt P36544); assay: Antagonist activity at human alpha7 nAChR at 10 uM relative to control; set-up: scale not given: the % may be the effect or the level left
[41] = target: T2, Sodium-dependent noradrenaline transporter; assay: Binding affinity to human NET
[42] = target: T3, D(4) dopamine receptor (Homo sapiens, UniProt P21917); assay: Antagonist activity at human D4 receptor; assay type: functional
T3 sequence (P21917 whole entry): T1 sequence (whole entry)

[43] = organism: Rattus norvegicus; assay: Anti-parkinson activity in Sprague-Dawley rat model assessed as decrease in spontaneous firing frequency measured after 15 mins by whole cell patch assay; assay type: functional, organism-based
[44] = organism: Mus musculus; assay: Anti-parkinson activity in C57BL6/J mouse model assessed as reduction in Ip induced DA release in striatum in presence of DHbetaE by fast-scan cyclic voltammetry analysis; assay type: functional, organism-based
[45] = organism: Mus musculus; assay: Anti-parkinson activity in C57BL6/J mouse model assessed as reduction in Ip induced DA release in striatum by fast-scan cyclic voltammetry analysis; assay type: functional, organism-based
[46] = organism: Mus musculus; assay: Anti-parkinson activity in C57BL6/J mouse model assessed as reduction in 5p 50 Hz induced DA release in striatum by fast-scan cyclic voltammetry analysis; assay type: functional, organism-based
[47] = organism: Mus musculus; assay: Anti-parkinson activity in C57BL6/J mouse model assessed as reduction in 10p 50 Hz induced DA release in striatum by fast-scan cyclic voltammetry analysis; assay type: functional, organism-based
[48] = Intrinsic clearance in Sprague-Dawley rat at 0.5 mg/kg, iv by LC-MS/MS analysis; assay type: ADME, organism-based; settings: in vivo
[49] = Oral bioavailability in Sprague-Dawley rat 3 mg/kg by LC-MS/MS analysis; assay type: ADME, organism-based; settings: in vivo

Neuronal acetylcholine receptor; alpha3/beta4, sequence (P30926 whole entry): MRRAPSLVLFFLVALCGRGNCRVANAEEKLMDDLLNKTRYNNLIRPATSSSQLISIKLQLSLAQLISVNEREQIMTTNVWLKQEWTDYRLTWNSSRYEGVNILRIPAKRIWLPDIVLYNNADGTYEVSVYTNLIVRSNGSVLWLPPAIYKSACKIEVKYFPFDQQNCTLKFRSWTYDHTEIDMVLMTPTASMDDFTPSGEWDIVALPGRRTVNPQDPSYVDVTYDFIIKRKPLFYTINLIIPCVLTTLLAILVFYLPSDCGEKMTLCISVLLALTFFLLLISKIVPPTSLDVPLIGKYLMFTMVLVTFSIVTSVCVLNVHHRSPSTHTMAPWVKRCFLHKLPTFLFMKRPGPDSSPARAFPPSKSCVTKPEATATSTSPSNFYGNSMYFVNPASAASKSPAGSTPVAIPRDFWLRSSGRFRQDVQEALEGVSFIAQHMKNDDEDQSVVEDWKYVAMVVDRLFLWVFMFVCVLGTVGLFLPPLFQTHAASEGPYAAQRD
Neuronal acetylcholine receptor; alpha3/beta4, sequence (P32297 whole entry): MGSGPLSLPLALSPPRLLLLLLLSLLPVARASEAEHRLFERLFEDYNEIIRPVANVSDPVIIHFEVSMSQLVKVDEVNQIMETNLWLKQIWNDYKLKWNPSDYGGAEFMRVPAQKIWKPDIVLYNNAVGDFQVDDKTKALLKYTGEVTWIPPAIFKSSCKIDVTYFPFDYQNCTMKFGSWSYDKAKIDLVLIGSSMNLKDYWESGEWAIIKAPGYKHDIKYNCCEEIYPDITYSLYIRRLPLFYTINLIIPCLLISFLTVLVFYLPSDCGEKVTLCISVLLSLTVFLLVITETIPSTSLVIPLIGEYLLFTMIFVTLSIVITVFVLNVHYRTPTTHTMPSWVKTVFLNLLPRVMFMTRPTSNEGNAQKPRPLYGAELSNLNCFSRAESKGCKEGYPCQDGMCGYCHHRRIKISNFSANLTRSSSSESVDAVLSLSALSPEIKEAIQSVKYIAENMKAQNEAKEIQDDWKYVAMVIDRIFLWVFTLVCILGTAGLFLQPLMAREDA
Neuronal acetylcholine receptor; alpha4/beta2, sequence (P17787 whole entry): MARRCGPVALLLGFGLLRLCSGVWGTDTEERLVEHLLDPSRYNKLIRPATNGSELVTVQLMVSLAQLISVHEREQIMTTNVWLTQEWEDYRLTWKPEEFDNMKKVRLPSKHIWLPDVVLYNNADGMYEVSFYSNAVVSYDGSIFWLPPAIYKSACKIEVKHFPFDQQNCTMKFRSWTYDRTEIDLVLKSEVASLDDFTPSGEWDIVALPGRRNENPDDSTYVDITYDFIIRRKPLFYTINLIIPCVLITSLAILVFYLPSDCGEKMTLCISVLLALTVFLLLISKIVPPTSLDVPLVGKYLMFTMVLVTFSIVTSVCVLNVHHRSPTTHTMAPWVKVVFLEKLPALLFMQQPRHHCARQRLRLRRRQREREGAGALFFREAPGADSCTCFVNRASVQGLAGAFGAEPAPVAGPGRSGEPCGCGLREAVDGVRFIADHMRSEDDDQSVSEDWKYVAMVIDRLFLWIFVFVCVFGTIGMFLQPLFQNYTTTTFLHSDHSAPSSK
Neuronal acetylcholine receptor; alpha4/beta2, sequence (P43681 whole entry): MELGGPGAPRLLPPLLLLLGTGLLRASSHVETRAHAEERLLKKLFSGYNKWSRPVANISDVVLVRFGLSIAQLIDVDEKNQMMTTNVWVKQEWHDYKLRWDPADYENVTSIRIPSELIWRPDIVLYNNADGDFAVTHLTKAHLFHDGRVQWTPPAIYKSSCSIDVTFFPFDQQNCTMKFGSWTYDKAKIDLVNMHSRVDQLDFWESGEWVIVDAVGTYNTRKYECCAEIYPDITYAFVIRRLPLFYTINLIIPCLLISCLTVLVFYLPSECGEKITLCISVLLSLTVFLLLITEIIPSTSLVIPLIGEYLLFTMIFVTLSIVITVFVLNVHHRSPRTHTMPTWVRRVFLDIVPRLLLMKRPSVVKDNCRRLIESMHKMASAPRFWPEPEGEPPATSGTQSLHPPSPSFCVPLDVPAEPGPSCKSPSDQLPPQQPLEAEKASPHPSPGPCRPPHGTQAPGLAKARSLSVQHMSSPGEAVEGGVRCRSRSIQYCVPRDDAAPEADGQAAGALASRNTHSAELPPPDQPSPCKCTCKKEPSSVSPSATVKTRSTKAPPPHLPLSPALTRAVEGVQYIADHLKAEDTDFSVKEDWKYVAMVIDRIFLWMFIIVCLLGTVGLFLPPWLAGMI
T2 sequence (P23975 whole entry): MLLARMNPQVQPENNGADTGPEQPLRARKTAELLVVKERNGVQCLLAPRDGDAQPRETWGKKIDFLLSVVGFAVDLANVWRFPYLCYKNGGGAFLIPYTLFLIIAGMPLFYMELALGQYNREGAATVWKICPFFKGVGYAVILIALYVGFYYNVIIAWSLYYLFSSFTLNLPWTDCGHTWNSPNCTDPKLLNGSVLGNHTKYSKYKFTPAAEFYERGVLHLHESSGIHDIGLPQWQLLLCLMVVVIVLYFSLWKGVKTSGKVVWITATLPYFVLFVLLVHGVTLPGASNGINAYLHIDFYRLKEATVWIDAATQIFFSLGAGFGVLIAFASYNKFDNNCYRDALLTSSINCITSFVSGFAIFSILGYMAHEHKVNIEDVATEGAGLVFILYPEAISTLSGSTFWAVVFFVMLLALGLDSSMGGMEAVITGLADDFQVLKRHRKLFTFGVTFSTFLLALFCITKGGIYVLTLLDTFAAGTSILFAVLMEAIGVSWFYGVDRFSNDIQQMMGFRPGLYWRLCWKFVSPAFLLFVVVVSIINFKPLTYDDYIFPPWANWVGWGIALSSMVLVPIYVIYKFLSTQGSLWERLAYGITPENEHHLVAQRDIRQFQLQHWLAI
Sigma non-opioid intracellular receptor 1 (Cavia porcellus), sequence (Q60492 whole entry): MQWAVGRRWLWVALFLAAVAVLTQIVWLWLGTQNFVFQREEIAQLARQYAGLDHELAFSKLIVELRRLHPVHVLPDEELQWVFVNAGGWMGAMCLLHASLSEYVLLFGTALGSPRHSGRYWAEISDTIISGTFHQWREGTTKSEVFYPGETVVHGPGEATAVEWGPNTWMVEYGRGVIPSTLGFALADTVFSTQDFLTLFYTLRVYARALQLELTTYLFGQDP
Neuronal acetylcholine receptor subunit alpha-7 (Homo sapiens), sequence (P36544 whole entry): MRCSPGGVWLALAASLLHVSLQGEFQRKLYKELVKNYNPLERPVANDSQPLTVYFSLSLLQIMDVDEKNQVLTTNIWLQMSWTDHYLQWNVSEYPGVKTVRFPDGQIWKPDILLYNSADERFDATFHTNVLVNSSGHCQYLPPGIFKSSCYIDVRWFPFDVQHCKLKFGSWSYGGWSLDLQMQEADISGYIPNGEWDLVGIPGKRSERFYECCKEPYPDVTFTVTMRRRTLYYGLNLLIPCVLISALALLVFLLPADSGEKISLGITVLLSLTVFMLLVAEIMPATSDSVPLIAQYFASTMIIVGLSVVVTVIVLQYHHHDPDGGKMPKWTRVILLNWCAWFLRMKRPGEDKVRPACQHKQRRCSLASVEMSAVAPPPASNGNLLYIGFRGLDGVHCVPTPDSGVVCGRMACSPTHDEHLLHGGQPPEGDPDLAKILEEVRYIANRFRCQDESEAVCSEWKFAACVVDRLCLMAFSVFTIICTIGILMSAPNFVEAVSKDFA

Compound: CCCN(CCC)CCc1cccc2c1CC(=O)N2 [ROPINIROLE]
Activity [4]: 17.5%

Compound: CN1CCC(NC(=O)c2cc(-c3ccc(C(F)(F)F)cc3)nn2C)CC1
IC50 [1]: 3840 nM

Compound: Cn1nc(C(=O)NCC2CCCOC2)cc1-c1ccc(C(F)(F)F)cc1 (racemic)
IC50 [1]: 3290 nM

Compound: Cc1ccc(C)c(Cn2nc(C)cc2C(=O)N[C@@H]2C[C@H]3CCC[C@@H](C2)N3C)c1
IC50 [1]: 703 nM

The next lines start with results.

IC50 [1]: 115 nM
microsomal CLint at 10 µM [2]: 75.5 µL/min/mg
microsomal CLint at 10 µM [3]: 204 µL/min/mg
Compound: COc1ccc(-c2cc(C(=O)N[C@H]3CN(C)CCC3(F)F)nn2C)c(Cl)c1

Activity [5]: 90%
IC50 [1]: 86 nM
IC50 [6]: 2560 nM
IC50 [7]: 657 nM
Vd [8]: 12.3 L/kg
concentration at 2 h [9]: 1820 nM
microsomal CLint [13]: 2.8 µL/min/mg
microsomal CLint [14]: 31.2 µL/min/mg
microsomal CLint [15]: 33.3 µL/min/mg
microsomal CLint [16]: 27.7 µL/min/mg
CLint [17]: 20.8 µL/min/1e6 cells
CLint [18]: 25.1 µL/min/1e6 cells
CLint [19]: 32.3 µL/min/1e6 cells
CLint [20]: 3.7 µL/min/1e6 cells
clearance [21]: 38.2 mL/min/kg
AUC(0-inf) [22]: 205 ng·h/mL
Cmax [23]: 350 nM
AUC(0-inf) [24]: 775 ng·h/mL
bioavailability [25]: 11%
half-life [26]: 5.9 h
Kp uu at 6 h [27]: 1.4
Vd [28]: 11.4 L/kg
AUC [29]: 13.5 ng·h/mL
bioavailability [30]: 43.8%
half-life [31]: 7.8 h
fraction unbound [32]: 0.3
fraction unbound [33]: 0.202
fraction unbound [34]: 0.25
fraction unbound [35]: 0.068
fraction unbound [36]: 0.053
Activity [37]: 84%
Activity [38]: 62%
Activity [39]: 51%
Activity [40]: 13%
IC50 [41]: 44700 nM
IC50 [42]: 1290 nM
Compound: COc1ccc(-c2cc(C(=O)N[C@H]3CCCN(C)C3)nn2C)c(Cl)c1
Activity [10]: Dose-Dependent Effect
Activity [11]: Active
Activity [4]: 18.9%
Drug uptake [12]: Dose-Dependent Effect
Activity [43]: Active
Activity [44]: Active
Activity [45]: Active
Activity [46]: Active
Activity [47]: Active

IC50 [1]: 77 nM
IC50 [6]: 2090 nM
IC50 [7]: 563 nM
Compound: COc1ccc(-c2cc(C(=O)N[C@@H]3CCCN(C)C3)nn2C)c(Cl)c1
Activity [10]: Dose-Dependent Effect
Drug uptake [12]: Dose-Dependent Effect

IC50 [1]: 83 nM
Compound: CN1CCC[C@H](NC(=O)c2cc(-c3ccc(C(F)(F)F)cc3Cl)n(C)n2)C1

IC50 [1]: 89 nM
microsomal CLint at 10 µM [2]: 0.7 µL/min/mg
microsomal CLint at 10 µM [3]: 11 µL/min/mg
Compound: [2H]C([2H])([2H])Oc1ccc(-c2cc(C(=O)N[C@H]3CCCN(C([2H])([2H])[2H])C3)nn2C([2H])([2H])[2H])c(Cl)c1

IC50 [1]: 139 nM
IC50 [6]: 4960 nM
IC50 [7]: 1040 nM
CL [48]: 41.5 mL/min/kg
Vd [8]: 25.7 L/kg
bioavailability [49]: 70.1%
concentration at 2 h [9]: 2970 nM
Compound: CN1CCC(NC(=O)c2cc(-c3ccc(C(F)(F)F)cc3)n(C)n2)CC1
